Where “and” joins values, the source holds several entries; their conditions need not be identical. Equal entries are not always repeated. Toxic doses and inconclusive results are not listed. No stated cut-off is given here; in the data, active means T/C of 150% or more; inactive means T/C below 125%.
Tested on: L1210 leukemia ip in BDF1 mice, survival T/C
Test: NCI In Vivo Anticancer Drug Screen. Data for tumor model L1210 Leukemia (intraperitoneal) in B6D2F1 (BDF1) mice
Conditions: endpoint: mean survival time, higher = longer survival
In short: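 Transplantable tumor model; survival measured in treated vs vehicle control mice. Value = treated/control.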

[1] = dose: 50.0 mg/kg/injection, schedule: Q01DX001 (ip), vehicle: carboxymethylcellulose (CMC)
[2] = dose: 100.0 mg/kg/injection, schedule: Q04DX003 (ip), vehicle: Klucel (hydroxypropylcellulose) (HPC)
[3] = dose: 200.0 mg/kg/injection, schedule: Q04DX003 (ip), vehicle: Klucel (hydroxypropylcellulose) (HPC)
[4] = dose: 400.0 mg/kg/injection, schedule: Q04DX003 (ip), vehicle: Klucel (hydroxypropylcellulose) (HPC)
[5] = dose: 50.0 mg/kg/injection, schedule: Q01DX009 (ip), vehicle: saline
[6] = dose: 100.0 mg/kg/injection, schedule: Q01DX009 (ip), vehicle: saline
[7] = dose: 100.0 mg/kg/injection, schedule: Q01DX001 (ip), vehicle: carboxymethylcellulose (CMC)
[8] = dose: 200.0 mg/kg/injection, schedule: Q01DX001 (ip), vehicle: carboxymethylcellulose (CMC)
[9] = dose: 100.0 mg/kg/injection, schedule: Q01DX009 (ip), vehicle: Klucel (hydroxypropylcellulose) (HPC)
[10] = dose: 100.0 mg/kg/injection, schedule: Q04DX003 (ip), vehicle: saline
[11] = dose: 200.0 mg/kg/injection, schedule: Q04DX003 (ip), vehicle: saline
[12] = dose: 400.0 mg/kg/injection, schedule: Q04DX003 (ip), vehicle: saline
[13] = dose: 400.0 mg/kg/injection, schedule: Q01DX001 (ip), vehicle: other
[14] = dose: 200.0 mg/kg/injection, schedule: Q01DX009 (ip), vehicle: Klucel (hydroxypropylcellulose) (HPC)
[15] = dose: 100.0 mg/kg/injection, schedule: Q01DX001 (ip), vehicle: saline
[16] = dose: 200.0 mg/kg/injection, schedule: Q01DX001 (ip), vehicle: saline
[17] = dose: 400.0 mg/kg/injection, schedule: Q01DX001 (ip), vehicle: saline

Measured: T/C

c1ccc2c(CNC3CCCCC3)c[nH]c2c1
inactive: [1] 90 % of control | [2] 90 % of control | [3] 97 % of control | [4] 98 % of control

CN(C)CCOC(=O)c1ccc(CCl)cc1
inactive: dose: 87.5 mg/kg/injection, schedule: Q01DX009 (ip), vehicle: saline 87 % of control | dose: 175.0 mg/kg/injection, schedule: Q01DX009 (ip), vehicle: saline 101 % of control

NCCSC(c1ccccc1)(c1ccccc1)c1ccccc1
inactive: dose: 25.0 mg/kg/injection, schedule: Q01DX009 (ip), vehicle: saline 94 % of control | [5] 103 % of control | [6] 107 % of control

CCc1ccc(OS(=O)(=O)c2ccccc2[N+](=O)[O-])cc1
inactive: dose: 100.0 mg/kg/injection, schedule: Q01DX009 (ip), vehicle: saline with Tween-80 96 % of control | [2] 100 % of control | dose: 200.0 mg/kg/injection, schedule: Q01DX009 (ip), vehicle: saline with Tween-80 114 % of control | [3] 100 % of control | dose: 400.0 mg/kg/injection, schedule: Q01DX009 (ip), vehicle: saline with Tween-80 103 % of control | [4] 95 % of control

O=[N+]([O-])c1ccc2conc2c1
inactive: [1] 94 % of control | [7] 97 % of control | [8] 92 % of control

CC(C)C(=O)NNCc1ccccc1
inactive: dose: 12.5 mg/kg/injection, schedule: Q01DX009 (ip), vehicle: Klucel (hydroxypropylcellulose) (HPC) 106 % of control | dose: 25.0 mg/kg/injection, schedule: Q01DX009 (ip), vehicle: Klucel (hydroxypropylcellulose) (HPC) 104 % of control | dose: 50.0 mg/kg/injection, schedule: Q01DX009 (ip), vehicle: Klucel (hydroxypropylcellulose) (HPC) 97 % of control | [9] 92 % of control

O=[N+]([O-])c1ccc(/C=C/c2nccs2)o1
inactive: [2] 97 % of control | [3] 106 % of control | [4] 108 % of control

OCC1OC(Oc2ccccc2)C(O)C(O)C1O (configuration not stated)
inactive: [10] 96 % of control | [11] 105 % of control | [12] 100 % of control

NC(=O)C[n+]1cccc(C(=O)Nc2ccccc2)c1
inactive: [10] 97 % of control | [11] 101 % of control | [12] 87 % of control

CCCCCCCCN(C)/N=N/c1nc[nH]c1C(=O)OCC
inactive: dose: 50.0 mg/kg/injection, schedule: Q01DX001 (ip), vehicle: other 94 % of control | dose: 100.0 mg/kg/injection, schedule: Q01DX001 (ip), vehicle: other 105 % of control | dose: 200.0 mg/kg/injection, schedule: Q01DX001 (ip), vehicle: other 113 % of control | [13] 105 % of control

Nc1ccc(OCCNS(=O)(=O)c2ccc(S(=O)(=O)F)cc2)c(Cl)c1
inactive: dose: 25.0 mg/kg/injection, schedule: Q04DX003 (ip), vehicle: Klucel (hydroxypropylcellulose) (HPC) 97 % of control | dose: 50.0 mg/kg/injection, schedule: Q01DX001 (ip), vehicle: saline with Tween-80 91 % of control | dose: 50.0 mg/kg/injection, schedule: Q04DX003 (ip), vehicle: Klucel (hydroxypropylcellulose) (HPC) 97 % of control | dose: 100.0 mg/kg/injection, schedule: Q01DX001 (ip), vehicle: saline with Tween-80 92 % of control | [2] 99 % of control and 105 % of control | dose: 200.0 mg/kg/injection, schedule: Q01DX001 (ip), vehicle: saline with Tween-80 100 % of control

CCCCN(C)N=Nc1ccccc1C(N)=O
inactive: dose: 89.0 mg/kg/injection, schedule: Q01DX009 (ip), vehicle: Klucel (hydroxypropylcellulose) (HPC) 108 % of control | dose: 89.0 mg/kg/injection, schedule: Q01DX009 (ip), vehicle: other 108 % of control | dose: 133.0 mg/kg/injection, schedule: Q01DX009 (ip), vehicle: Klucel (hydroxypropylcellulose) (HPC) 122 % of control | dose: 133.0 mg/kg/injection, schedule: Q01DX009 (ip), vehicle: other 122 % of control | dose: 177.0 mg/kg/injection, schedule: Q01DX001 (ip), vehicle: other 97 % of control | [14] 115 % of control | dose: 200.0 mg/kg/injection, schedule: Q01DX009 (ip), vehicle: other 108 % of control | dose: 266.0 mg/kg/injection, schedule: Q01DX001 (ip), vehicle: other 113 % of control | dose: 300.0 mg/kg/injection, schedule: Q01DX009 (ip), vehicle: Klucel (hydroxypropylcellulose) (HPC) 111 % of control and 124 % of control | dose: 300.0 mg/kg/injection, schedule: Q01DX009 (ip), vehicle: other 95 % of control and 90 % of control | [13] 101 % of control

CCCN1CCN(CCO)CC1C (configuration not stated)
inactive: [15] 98 % of control | [16] 101 % of control | [17] 98 % of control

CSc1cc2c(cc1NC(C)=O)Cc1cc(F)ccc1-2
inactive: [7] 98 % of control | [8] 101 % of control | dose: 400.0 mg/kg/injection, schedule: Q01DX001 (ip), vehicle: carboxymethylcellulose (CMC) 95 % of control

CCOC(=O)CCC1(CCC(=O)OCC)c2ccccc2-c2ccccc21
inactive: [9] 97 % of control | [14] 100 % of control | dose: 400.0 mg/kg/injection, schedule: Q01DX009 (ip), vehicle: Klucel (hydroxypropylcellulose) (HPC) 94 % of control

O/N=C/C=N/O.O/N=C/C=N/O.[Cl][Rh][Cl]
inactive: [5] 107 % of control | dose: 50.0 mg/kg/injection, schedule: Q04DX003 (ip), vehicle: saline 100 % of control | [6] 101 % of control | [10] 104 % of control | dose: 200.0 mg/kg/injection, schedule: Q01DX009 (ip), vehicle: saline 95 % of control | [11] 102 % of control | dose: 400.0 mg/kg/injection, schedule: Q01DX009 (ip), vehicle: saline 94 % of control | [12] 98 % of control

O=C1C=C(Cl)C(=O)c2ccccc21
inactive: dose: 9.38 mg/kg/injection, schedule: Q01DX001 (ip), vehicle: steriod suspending solution 91 % of control

CC(C)(C)C1CCC(=O)C(Cl)C1 (configuration not stated)
inactive: [9] 94 % of control | dose: 100.0 mg/kg/injection, schedule: Q04DX003 (ip), vehicle: alcohol 94 % of control | [14] 95 % of control | dose: 200.0 mg/kg/injection, schedule: Q04DX003 (ip), vehicle: alcohol 92 % of control | dose: 400.0 mg/kg/injection, schedule: Q04DX003 (ip), vehicle: alcohol 87 % of control

CC1(C)[C@@H]2CC[C@]1(C)[C@@H](O)C2
inactive: dose: 100.0 mg/kg/injection, schedule: Q01DX001 (ip), vehicle: Klucel (hydroxypropylcellulose) (HPC) 104 % of control | [2] 102 % of control | dose: 200.0 mg/kg/injection, schedule: Q01DX001 (ip), vehicle: Klucel (hydroxypropylcellulose) (HPC) 96 % of control | [3] 102 % of control | dose: 400.0 mg/kg/injection, schedule: Q01DX001 (ip), vehicle: Klucel (hydroxypropylcellulose) (HPC) 93 % of control | [4] 97 % of control

O=C1CC(OC(=O)c2ccccc2)(c2ccccc2)OC(c2ccccc2)=C1c1ccccc1 (configuration not stated)
inactive: [15] 101 % of control | [2] 97 % of control | [16] 104 % of control | [3] 100 % of control | [17] 96 % of control | [4] 100 % of control

Reference: PubChem BioAssay AID248 (DTP/NCI, 2004)
